One experiment concerns 5-Lipoxygenase. Nature of the experiment: Inhibition of calcium ionophore-induced LTB4 formation in human polymorphonuclear leukocytes (PMNL). Format: cell-based. The note with it: stimulated LTB4 formation in human PMNL; calcium ionophore 8.3 μM, 15 min preincubation. As for the experimental part:
Inhibition of leukotriene biosynthesis was evaluated in an assay involving calcium ionophore-induced LTB4 expressed in human polymorphornuclear leukocytes (PMNL). Human PMNL isolated from heparinized (20 USP units/mL) venous blood (25 mL) obtained from healthy volunteers was layered over an equal volume of Ficoll-Hypaque Mono-Poly Resolving Medium (ICN Flow, Costa Mesa, Calif.) and centrifugated at 400 x g for 40 min at 20° C. The PMNL was collected, erythrocytes lysed and washed 2x and suspended at 1.0×10^7 cells/mL in Earle's balanced salt solution with 17 mM Earle's HEPES. Aliquots of the cell suspension were preincubated with test compounds dissolved in DMSO (final concentration <2%) for 15 min. and stimulated with calcium ionophore (final concentration 8.3 μM) for 10 min. at 37° C. Incubations were stopped with the addition of two volumes of ice-cold methanol followed by centrifuging the cell suspensions at 4° C. for 10 min at 450 x g. The mount of LTB4 in the methanol extract was analyzed by enzyme-linked immunoassay or by HPLC analysis.

The subject of a further experiment is leukotriene biosynthesis. The experiment can be described thus: In vivo leukotriene inhibition in rat peritoneal anaphylaxis model. The note with it: oral gavage 1 h before antigen challenge; for % Inhibition (dose): 30 μmol/kg. How it is done:
Inhibition of the biosynthesis of leuktrienes in vivo after oral administration of compound was determined using a rat peritoneal anaphylaxis model in a similar manner as that described by Young and coworkers (Young, P. R.; Dyer, R. D.; Carter, G. W. Fed. Proc., Fed. Am. Soc. Exp. Biol. 1985, 44, 1185). In this model rats were injected intraperitoneally (ip) with rabbit antibody to bovine serum albumin (BSA) and three hours later injected ip with BSA to induce an antgen-antibody response. Rats were sacrificed 15 minutes after this challenge and the peritoneal fluids were collected and analyzed for leukotriene levels. Test compounds were administered by gavage one hour prior to the antigen challenge. Percent inhibition values were determined by comparing the treatment group to the mean of the control group.

The next experiment relates to leukotriene. Nature of the experiment: In vivo leukotriene inhibition in rat pleural inflammation (A23187 ionophore-induced). The note with it: dosed in 0.2% methocel 1 h before intrapleural A23187, male rats; for ED50: Rattus norvegicus. How it is done:
Pleural inflammation was induced in male rats following the method of Rao et al (Rao, T. S., Currie, J. L., Shaffer, A. F., Isakson, P. C., (1993) Evaluation of 5-lipoxygenase Inhibitors, Zileuton, A-78773 and ICI D-2138 in an Ionophore (A-23 187) Induced Pleural Inflammation Model in the Rat. Life Sciences, 53: 147). Rats were dosed with experimental compounds in 0.2% methocel one hour prior to the intrapleural injection of the calcium ionophore, A23 187. The rats where lightly anesthetized with Pentrane (Abbott Laboratories) and injected intrapleurally with 0.5 ml of 2% ethanol in injectable saline (Abbott Laboratories) containing 20 ug of A23187 (Cal BioChem-Novabiochem). Thirty minutes later the animals were euthanised and the pleural cavities lavaged with ice cold saline (Abbott Laboratories). The lavage fluid was then added to ice cold methanol (final methanol concentration 30%) to lyse cells and precipitate protein. Eicosanoids were determined by enzyme immunoassay by standard methods.

The record followed here is patent US5512581A, “Iminoxycarboxylates and derivatives as inhibitors of leukotriene biosynthesis” (Abbott Laboratories, priority 1995, dated 1996).

pIC50: −log10 of the molar value. Bounds are passed on as bounds.

Regarding `CC(C)(CC(O/N=C/C(=O)O)c1ccc(OCc2ccc3ccccc3n2)cc1)c1ccccc1` (stereo not shown) [Example 49, 3-methyl-3-phenyl-1-(4-(2-quinolylmethoxy)phenyl)but-1-yl!-E-2-iminoxyacetic acid], the pIC50 in the experiment on 5-Lipoxygenase was above 7.00. The same measure, in the same setting: under `CCCCC(O/N=C(\C)C(=O)O)c1ccc(OCc2ccc3ccccc3n2)cc1` (stereo not shown) [Example 50, 4-(2-quinolylmethoxy)phenylpent-1-yl!-E-2-iminoxypropionic acid] stands above 7.00; under `CC(C)(C=NOCC(c1ccc(OCc2ccc3ccccc3n2)cc1)C1CCCCCC1)C(=O)O` (stereo not shown) [Example 28, 2-cycloheptyl-2-(4-(2-quinolylmethoxy)phenyl)eth-1-yl!-3-iminoxy-2,2-dimethylpropionic acid], 8.30. Take `O=C(O)C=NOCC(c1ccc(OCc2ccc3ccccc3n2)cc1)C1CCCCCC1` (stereo not shown) [Example 27, 2-Cycloheptyl-2-(4-(2-quinolylmethoxy)phenyl)eth-1-yl!iminoxyacetic acid]: the pIC50 in the experiment with 5-Lipoxygenase was 8.10. The compound further yielded an ED50 in the experiment on leukotriene biosynthesis of 0.7 mg/kg. As to `C/C(=N\OC(Cc1ccccc1)c1ccc(OCc2ccc3ccccc3n2)cc1)C(=O)O` (stereo not shown) [Example 42, 2-phenyl-1-(4-(2-quinolylmethoxy)phenyl)eth-1-yl!-E-2-iminoxy propionic acid], the pIC50 with 5-Lipoxygenase was above 7.00. For `COC(=O)/C(C)=N\OC(c1ccc(OCc2ccc3ccccc3n2)cc1)C1CCCCC1` (stereo not shown) [Example 30, Cyclohexyl-(4-(2-quinolylmethoxy)phenyl)methyl!-Z-2-iminoxypropionic acid methyl ester], in the experiment on 5-Lipoxygenase, the pIC50 was 6.77. Still for that read-out and setting: as for `CC(=NOC(CC1CCCCC1)c1ccc(OCc2ccc3ccccc3n2)cc1)C(=O)O` (stereo not shown) [Example 15, 2-Cyclohexyl-1-(4-(2-quinolylmethoxy)phenyl)eth-1-yl!-2-iminoxypropionic acid], the figure is 8.22; as for `O=C(O)c1ccc(C=NOC(c2ccc(OCc3ccc4ccccc4n3)cc2)C2CCCCC2)cc1` (stereo not shown) [Example 6, O-Cyclohexyl-(4-(2-quinolylmethoxy)phenyl)methyl!-4-carboxybenzaldoxime], 7.49. Take `O=C(O)C=NOCC(c1ccc(OCc2ccc3ccccc3n2)cc1)C1CCCCC1` (stereo not shown) [Example 26]: the pIC50 with 5-Lipoxygenase is 8.30. `C/C(=N/OC(c1ccc(OCc2ccc3ccccc3n2)cc1)C1CCCCC1)C(=O)O` (stereo not shown) [Example 32, cyclohexyl-(4-(2-quinolylmethoxy)phenyl)methyl!-Z-2-iminoxypropionic acid]: in the experiment with 5-Lipoxygenase, the pIC50 was 6.77. The same measure, in the same setting: as for `CC(=NOCc1ccc(OCc2ccc3ccccc3n2)cc1Cl)C(=O)O` [Example 57, 2-chloro-(4-(2-quinolylmethoxy)phenyl)methyl!-2-iminoxy propionic acid], the figure is above 7.00.

As for `O=C(O)c1ccc(C=NOC(CC2CCCCC2)c2ccc(OCc3cscn3)cc2)cc1` (stereo not shown) [Example 19, O-2-cyclohexyl-1-(4-(4-thiazolylmethoxy)phenyl)eth-1-yl!-4-carboxybenzaldoxime], in the experiment on leukotriene biosynthesis, the “% Inhibition (dose)” value stood at 81%. Regarding `C/C(=N\OC[C@@H](c1ccc(OCc2ccc3ccccc3n2)cc1)C1CCCC1)C(=O)O` [Example 62], in the experiment on 5-Lipoxygenase, the pIC50 is 7.44. Same read-out and setting: as for `O=C(O)c1ccc(C=NOC(CC2CCCCC2)c2ccc(OCc3ccc4ccccc4n3)cc2)cc1` (stereo not shown) [Example 14, O-2-Cyclohexyl-1-(4-(2-quinolylmethoxy)phenyl)eth-1-yl!-4-carboxybenzaldoxime], the figure is 8.40. In the case of `C/C(=N\OC(CC(C)(C)c1ccccc1)c1ccc(OCc2ccc3ccccc3n2)cc1)C(=O)O` (stereo not shown) [Example 48, 3-methyl-3-phenyl-1-(4-(2-quinolylmethoxy)phenyl)but-1-yl!-E-2-iminoxypropionic acid], in the experiment on 5-Lipoxygenase, the pIC50 is above 7.00. In the experiment on leukotriene, this compound registered an ED50 of 2 mg/kg. On to `COC(=O)/C(C)=N/OC(c1ccc(OCc2ccc3ccccc3n2)cc1)C1CCCCC1` (stereo not shown) [Example 31, Cyclohexyl-(4-(2-quinolylmethoxy)phenyl)methyl!-E-2-iminoxypropionic acid methyl ester], for which the pIC50 in the experiment on 5-Lipoxygenase is 7.60. Regarding `COC(=O)/C(C)=N/O[C@H](c1ccc(OCc2ccc3ccccc3n2)cc1)C1CCCCC1` [Example 36, (S)-Cyclohexyl-(4-(2-quinolylmethoxy)phenyl)methyl!-E-2-iminoxypropionic acid methyl ester], the pIC50 with 5-Lipoxygenase was 7.30.

As to `CC(=NOC(c1ccc(OCc2ccc3ccccc3n2)cc1)C1CCCCC1)C(=O)O` (stereo not shown) [Example 2, Cyclohexyl-(4-(2-quinolylmethoxy)phenyl)methyl!-2-iminoxy propionic acid], in the experiment on 5-Lipoxygenase, the pIC50 is 8.40. Further, the “% Inhibition (dose)” value with leukotriene (30 μmol/kg) was found to be 89%. This compound came in with an ED50 in the experiment with leukotriene biosynthesis of 1.2 mg/kg. For the compound `O=C(O)/C=N/OC(c1ccc(OCc2ccc3ccccc3n2)cc1)C1CCCCC1` (stereo not shown) [Example 40, Cyclohexyl-(4-(2-quinolylmethoxy)phenyl)methyl!-E-iminoxyacetic acid], in the experiment on 5-Lipoxygenase, the pIC50 was 7.77.

For the compound `CCCCC(O/N=C/C(=O)O)c1ccc(OCc2ccc3ccccc3n2)cc1` (stereo not shown) [Example 51], the pIC50 with 5-Lipoxygenase is above 7.00. Turning to `C/C(=N\OC(c1ccc(OCc2ccc3ccccc3n2)cc1)C1CCCCC1)C(=O)O` (stereo not shown) [Example 33, cyclohexyl-(4-(2-quinolylmethoxy)phenyl)methyl!-E-2-iminoxypropionic acid], the pIC50 in the experiment with 5-Lipoxygenase was 7.82. With `CC(=NOCC(c1ccc(OCc2ccc3ccccc3n2)cc1)C1CCCCC1)C(=O)O` (stereo not shown) [Example 55, Cyclohexyl-1-(4-(2-quinolylmethoxy)phenyl)eth-2-yl!-2-iminoxy propionic acid], the pIC50 with 5-Lipoxygenase is 7.52. `O=C(O)C=NOC(c1ccc(OCc2ccc3ccccc3n2)cc1)C1CCCCC1` (stereo not shown) [Example 1, Cyclohexyl-(4-(2-quinolylmethoxy)phenyl)methyl!iminoxyacetic acid]: in the experiment with 5-Lipoxygenase, the pIC50 is 7.68. Moreover, the “% Inhibition (dose)” value with leukotriene biosynthesis is on record as 82%.

As to `COC(=O)/C(C)=N/O[C@@H](c1ccc(OCc2ccc3ccccc3n2)cc1)C1CCCCC1` [Example 34], in the experiment with 5-Lipoxygenase, the pIC50 is 6.33. Consider `O=C(O)C=NOC(CCCc1ccc(Cl)cc1)c1ccc(OCc2ccc3ccccc3n2)cc1` (stereo not shown) [Example 12, 4-(4-Chlorophenyl)-1-(4-(2-quinolylmethoxy)phenyl) butyl!iminoxyacetic acid], for which, in the experiment with 5-Lipoxygenase, the pIC50 was 7.26.

Consider `C/C(=N\OC(c1ccc(OCc2ccc3ccccc3n2)cc1)c1cccs1)C(=O)O` (stereo not shown) [Example 43, 2-thienyl-(4-(2-quinolylmethoxy)phenyl)methyl!-E-2-iminoxy propionic acid], for which the pIC50 with 5-Lipoxygenase is above 7.00.

On to `C/C(=N\OC(c1ccc(OCc2ccc3ccccc3n2)cc1Cl)C1CCCCC1)C(=O)O` (stereo not shown) [Example 44, Cyclohexyl-(2-chloro4-(2-quinolylmethoxy)phenyl)methyl!-E-2-iminoxypropionic acid], for which the pIC50 with 5-Lipoxygenase is above 7.00. Regarding `C/C(=N\O[C@H](c1ccc(OCc2ccc3ccccc3n2)cc1)C1CCCCC1)C(=O)O` [Example 37, (S)-Cyclohexyl-(4-(2-quinolylmethoxy)phenyl)methyl!-E-2-iminoxypropionic acid], in the experiment with 5-Lipoxygenase, the pIC50 is 8.22. `CC(=NOC(c1ccc(OCc2ccc3ccccc3n2)cc1)C1CCCCCC1)C(=O)O` (stereo not shown) [Example 58, Cycloheptyl-(4-(2-quinolylmethoxy)phenyl)methyl!-2-iminoxy propionic acid]: the pIC50 in the experiment with 5-Lipoxygenase is above 7.00.

Take `C/C(=N\O[C@@H](c1ccc(OCc2ccc3ccccc3n2)cc1)C1CCCCC1)C(=O)O` [Example 35, (R)-Cyclohexyl-(4-(2-quinolylmethoxy)phenyl)methyl!-E-2-iminoxypropionic acid]: the pIC50 in the experiment with 5-Lipoxygenase is 7.15. Turning to `C/C(=N\OC(c1ccc(OCc2ccc3ccccc3n2)c(Cl)c1)C1CCCCC1)C(=O)O` (stereo not shown) [Example 45, Cyclohexyl-(3-chloro-4-(2-quinolylmethoxy)phenyl)methyl!-E-2-iminoxypropionic acid], the pIC50 with 5-Lipoxygenase is above 7.00. In the experiment on leukotriene, it took a dose of 1.2 mg/kg to reach the 50% effect level (ED50).

The term pIC50 denotes −log10 of the IC50, conventionally taken in molar units. For orientation: ED50 means the dose that gives a 50% effect, or the effect in half of the subjects. Read a high ED50 as weaker potency.
